{
  "source": "paper PMC7887336",
  "about": "“Altered functional properties of the codling moth Orco mutagenized in the intracellular loop-3” (Scientific Reports, 2021)",
  "key": {"CpomOrco^Q417H+OR3": {"target": "T1, CpomOrco^Q417H+OR3 (Cydia pomonella, UniProt H9A5M3)", "T1 construct": "variant as stated: Q417H", "T1 sequence (H9A5M3 1-426)": "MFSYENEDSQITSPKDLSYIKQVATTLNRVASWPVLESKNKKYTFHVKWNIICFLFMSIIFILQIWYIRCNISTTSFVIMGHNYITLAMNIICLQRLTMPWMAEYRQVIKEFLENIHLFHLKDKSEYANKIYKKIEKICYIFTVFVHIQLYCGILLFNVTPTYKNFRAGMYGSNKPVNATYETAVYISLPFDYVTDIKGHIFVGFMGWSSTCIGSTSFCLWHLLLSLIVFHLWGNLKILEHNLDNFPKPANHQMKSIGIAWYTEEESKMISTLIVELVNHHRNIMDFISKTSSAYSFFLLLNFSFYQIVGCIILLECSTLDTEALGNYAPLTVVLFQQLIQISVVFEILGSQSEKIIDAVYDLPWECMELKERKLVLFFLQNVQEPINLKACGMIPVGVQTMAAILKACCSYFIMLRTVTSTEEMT", "T1 sequence (H9A5M2 1-473 Q417H partner)": "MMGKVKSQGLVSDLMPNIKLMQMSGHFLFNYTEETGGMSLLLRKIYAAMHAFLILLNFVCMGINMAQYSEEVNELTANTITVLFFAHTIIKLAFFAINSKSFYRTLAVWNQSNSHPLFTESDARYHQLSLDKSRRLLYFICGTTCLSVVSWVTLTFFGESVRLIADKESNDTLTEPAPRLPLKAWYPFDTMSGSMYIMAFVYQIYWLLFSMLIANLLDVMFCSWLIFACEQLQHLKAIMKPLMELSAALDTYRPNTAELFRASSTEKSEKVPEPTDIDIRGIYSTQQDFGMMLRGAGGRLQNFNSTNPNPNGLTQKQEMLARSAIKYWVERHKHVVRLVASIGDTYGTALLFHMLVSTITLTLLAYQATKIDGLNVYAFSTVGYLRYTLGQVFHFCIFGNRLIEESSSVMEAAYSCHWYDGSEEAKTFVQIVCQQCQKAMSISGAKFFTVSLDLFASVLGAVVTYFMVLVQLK", "experiment": "Calcium imaging of HEK293T cells co-expressing CpomOrco^Q417H and CpomOR3, pear ester stimulation", "format": "cell-based", "description": "(§1) HEK293 cells lines (HEK293A/HEK293T) were grown in HEK cell media [Dulbecco's modified Eagle's medium containing 10% fetal bovine serum (MP Biomedicals, Solon, OH, USA), 2.0 mM L-glutamine, and 100 µg/mL penicillin/streptomycin (Invitrogen)] at 37 °C and 5% CO2. To test transient expression of wild type CpomOrco and CpomOrco^Q417H variant for calcium imaging and patch-clamp recording, 35-mm petri dishes containing semi-confluent HEK293A cells were transiently transfected. Cells were transfected with 0.6 µg of pcDNA40-DEST carrying the coding sequence of the CpomOrco variant (depending on the experiments). To report expression for calcium imaging experiments, 0.6 µg of a separate plasmid DNA [pEBFP2-Nuc, a gift from Robert Campbell (Addgene plasmid # 1489352)] carrying the coding sequence for a blue fluorescent protein (EBFP) was co-transfected. To report expression in patch-clamp recordings, 1.0 µg of a separate plasmid DNA (pXOOM, Clontech, Mountain View, CA, USA) carrying the coding sequence for a green fluorescent protein (GFP) was co-transfected. Expressions of fluorescent reporter genes were under the regulation of the same promoter for Cpom-genes (CMV). For specific experiments, co-transfections were conducted combining an additional 1.2 µg of pcDNA40-DEST/CpomOR3 or pcDNA40-DEST/CpomOR6a, as we previously described. Co-transfections with CpomOR3 were performed for dose–response experiments to pear ester: CpomOR3 was co-expressed with CpomOrco variants by the use of HEK293T (Fig. 3b); given the reported functional co-expression data of the CpomOrco + OR3 heteromers by the use of these specific cells. In brief, transfection DNAs were dissolved in 100 µL sterile DMEM, mixed with 3.0 µL Calfectin (SignaGen, Rockville, MD, USA) following the recommended protocol. Transfections were conducted overnight for up to 18 h, HEK cell media was replaced with 2.0 mL fresh media to incubate cells at 37 °C for up to 6–8 h, at which point part of the cell culture was spread in the middle of a 35-mm plate as individual cells or small clusters and rinsed at the sides with 2.0 mL fresh HEK media. After splitting, cells were allowed to recover for at least 1 day prior to calcium imaging. […]\n(§2) Fluorescence imaging was performed using settings optimized for Imaging Workbench 6 software (INDEC BioSystems, Santa Clara, CA, USA)[14]. […] Each cell was assigned a region of interest (ROI) and changes in fluorescence intensity within each ROI were measured and expressed as the fractional change in fluorescence intensity (dF). Stored time series image stacks were analysed off-line using Imaging Workbench 6, Clampfit 10.5 (Molecular Devices) and SigmaPlot 11 (Systat Software Inc., San Jose, CA, USA). […]"}, "CpomOrco+OR3": {"target": "T2, CpomOrco+OR3 (Cydia pomonella, UniProt H9A5M3)", "T2 sequence (H9A5M3 1-426)": "T1 sequence (H9A5M3 1-426)", "T2 sequence (H9A5M2 1-473 partner)": "T1 sequence (H9A5M2 1-473 Q417H partner) with H417Q", "experiment": "Calcium imaging of HEK293T cells co-expressing CpomOrco and CpomOR3, pear ester stimulation", "format": "cell-based", "description": "as §1, §2"}},
  "note": "Substitutions are numbered along the chain they refer to. Like-named read-outs stand apart in the source and are kept apart here.",
  "data": [
    {"molecule": "CCCCC/C=C\\C=C\\C(=O)OCC", "note": "[pear ester, ethyl (E,Z)-2,4 decadienoate]", "values": [
      {"measurement": "Hill coefficient (cooperativity coefficient h)", "setting": "CpomOrco^Q417H+OR3", "result": "~ 4.6"},
      {"measurement": "EC50", "setting": "CpomOrco^Q417H+OR3; Hill fit", "result": "~733", "unit": "µM"},
      {"measurement": "maximum response (Hill fit of calcium response amplitudes)", "setting": "CpomOrco^Q417H+OR3; N = 262 cells", "result": "~3.7 ± 0.1 ∆F"},
      {"measurement": "Hill coefficient (cooperativity coefficient h)", "setting": "CpomOrco^Q417H+OR3; listed as Pear ester", "result": "~ 4.6 ± 0.4"},
      {"measurement": "Hill coefficient (cooperativity coefficient h)", "setting": "CpomOrco+OR3", "result": "~ 4.6"},
      {"measurement": "EC50", "setting": "CpomOrco+OR3; Hill fit", "result": "~210", "unit": "µM"},
      {"measurement": "maximum response (Hill fit of calcium response amplitudes)", "setting": "CpomOrco+OR3; N = 160 cells", "result": "~ 6.6 ± 0.3 ∆F"},
      {"measurement": "Hill coefficient (cooperativity coefficient h)", "setting": "CpomOrco+OR3; listed as Pear ester", "result": "~ 4.6 ± 2.4"}
    ]}
  ]
}
